Columns and labels:
soybean = experiment: Test B pre/postemergence soybean; type: in vivo, Glycine max
Outline: (§1)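 Test chemicals in a non-phytotoxic solvent mixture with surfactant were sprayed preemergence onto planted seeds and postemergence onto plants 2 to 18 cm tall (1- to 4-leaf stage). After twelve to sixteen days in a greenhouse, injury was visually rated against untreated controls from 0 (no effect) to 10 (complete control).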

smallflower flatsedge = experiment: Test B flood test smallflower flatsedge; type: in vivo, Cyperus difformis
Outline: (§2)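 Flood test on plants grown to the 2-leaf stage; treated plants kept in greenhouse twelve to sixteen days, then visually rated against controls on a 0 (no effect) to 10 (complete control) scale.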

velvetleaf = experiment: Test B pre/postemergence velvetleaf; type: in vivo, Abutilon theophrasti
Outline: as §1

duck salad = experiment: Test B flood test duck salad; type: in vivo, Heteranthera limosa
Outline: as §2

[1] = Postemergence, Rate 1000 g/ha, scale 0 to 10 (0 no effect, 10 complete control)
[2] = Preemergence, Rate 62 g/ha, scale of 0 to 10 where 0 is no effect and 10 is complete control
[3] = Preemergence, Rate 250 g/ha, scale 0 to 10, 0 is no effect, 10 is complete control
[4] = Preemergence, Rate 500 g/ha, scale 0 to 10 (0 no effect, 10 complete control)
[5] = Rate 125 g/ha, Postemergence, scale 0 to 10
[6] = Rate 500 g/ha, Postemergence, scale 0 to 10
[7] = Rate 1000 g/ha, Preemergence, scale 0 to 10 (0 no effect, 10 complete control)
[8] = Rate 2000 g/ha, Postemergence, scale 0 to 10
[9] = Rate 2000 g/ha, Preemergence, scale 0 to 10
[10] = Pre-emergence, Rate 1000 g/ha, scale 0 to 10 (0 no effect, 10 complete control)
[11] = Rate 62 g/ha, headed Pre-emergence (flood test species), scale 0 to 10 (0 no effect, 10 complete control)
[12] = Rate 125 g/ha, Pre-emergence, flood test species, scale 0 to 10 where 0 is no effect and 10 is complete control
[13] = Rate 250 g/ha, Pre-emergence, flood-test species, scale 0 to 10, 0 is no effect, 10 is complete control
[14] = Rate 2000 g/ha, Pre-emergence (as headed), scale 0 to 10
[15] = Postemergence, Rate 62 g/ha, scale 0 to 10, 0 is no effect, 10 is complete control
[16] = Postemergence, Rate 250 g/ha, scale 0 to 10, 0 no effect, 10 complete control
[17] = Preemergence, Rate 62 g/ha, scale 0 to 10, 0 is no effect, 10 is complete control
[18] = Preemergence, Rate 125 g/ha, scale 0 to 10 (0 no effect, 10 complete control)
[19] = Preemergence, Rate 250 g/ha, scale of 0 to 10 where 0 is no effect and 10 is complete control
[20] = Preemergence, Rate 500 g/ha, scale 0 (no effect) to 10 (complete control)
[21] = Rate 125 g/ha, Postemergence, scale 0 to 10, 0 no effect, 10 complete control
[22] = Rate 125 g/ha, Postemergence section (flood test species), scale 0 to 10, 0 no effect, 10 complete control
[23] = flood test, listed under Postemergence, Rate 250 g/ha, scale 0 to 10, 0 no effect, 10 complete control
[24] = Postemergence, Rate 125 g/ha, scale of 0 to 10 where 0 is no effect and 10 is complete control
[25] = Postemergence, Rate 250 g/ha, scale of 0 to 10, 0 is no effect, 10 is complete control
[26] = Postemergence, Rate 500 g/ha, scale of 0 to 10 where 0 is no effect and 10 is complete control
[27] = Preemergence, Rate 125 g/ha, scale of 0 to 10 where 0 is no effect and 10 is complete control
[28] = Preemergence, Rate 500 g/ha, scale of 0 to 10 where 0 is no effect and 10 is complete control
[29] = Rate 125 g/ha, under heading Pre-emergence, flood test species, visual evaluation after twelve to sixteen days
[30] = Rate 250 g/ha, Pre-emergence (flood test species), scale 0 to 10, 0 is no effect, 10 is complete control
[31] = Rate 500 g/ha, Pre-emergence section of Table B, 0 to 10 scale (0 no effect, 10 complete control)

## CCN(C(=O)n1oc(=O)n(N(C)c2ccccc2)c1=O)C1CCCCC1 [Compound 183]
soybean; [1]
  Soybean plant response rating: 2
soybean; [2]
  Soybean plant response rating: 0
soybean; Preemergence, Rate 125 g/ha, 0 is no effect, 10 is complete control
  Soybean plant response rating (0 to 10 scale): 0
soybean; [3]
  Soybean plant response rating: 0
soybean; [4]
  Soybean plant response rating: 0
soybean; Rate 62 g/ha, Postemergence, scale of 0 to 10 where 0 is no effect and 10 is complete control
  Soybean plant response rating: 0
soybean; [5]
  Soybean plant response rating: 1
soybean; Rate 250 g/ha, Postemergence
  Plant response rating (0 to 10; 0 is no effect, 10 is complete control), Soybean: 2
soybean; [6]
  Soybean plant response rating: 2
soybean; [7]
  Plant response rating, Soybean: 0
soybean; [8]
  Soybean plant response rating: 3
soybean; [9]
  Soybean plant response rating: 0
Smallflower flatsedge; [10]
  S. Flatsedge plant response rating: 0
Smallflower flatsedge; [11]
  S. Flatsedge plant response rating: 0
Smallflower flatsedge; [12]
  S. Flatsedge plant response rating: 0
Smallflower flatsedge; [13]
  S. Flatsedge plant response rating: 0
Smallflower flatsedge; Rate 500 g/ha, Pre-emergence, flood test species, scale 0 to 10 (0 no effect, 10 complete control)
  S. Flatsedge plant response rating: 0
Smallflower flatsedge; [14]
  S. Flatsedge plant response rating: 0
velvetleaf; [1]
  Velvetleaf plant response rating: 1
velvetleaf; [2]
  Velvetleaf plant response rating: 0
velvetleaf; [3]
  Velvetleaf plant response rating: 0
velvetleaf; [4]
  Velvetleaf plant response rating: 0
velvetleaf; [5]
  Velvetleaf plant response rating: 0
velvetleaf; Rate 250 g/ha, Postemergence
  Plant response rating (0 to 10; 0 is no effect, 10 is complete control), Velvetleaf: 0
velvetleaf; [6]
  Velvetleaf plant response rating: 0
velvetleaf; [7]
  Plant response rating, Velvetleaf: 0
velvetleaf; [8]
  Velvetleaf plant response rating: 1
velvetleaf; [9]
  Velvetleaf plant response rating: 0
Duck salad; [11]
  Ducksalad plant response rating: 0
Duck salad; [12]
  Ducksalad plant response rating: 0
Duck salad; [13]
  Ducksalad plant response rating: 0
Duck salad; Rate 500 g/ha, headed Pre-emergence (flood test species), scale 0 to 10 (0 no effect, 10 complete control)
  Plant response rating, Ducksalad: 0
Duck salad; Rate 1000 g/ha, Pre-emergence (as headed), scale 0 to 10
  Ducksalad plant response rating: 0
Duck salad; [14]
  Ducksalad plant response rating: 0

## CC(C)N(C(=O)n1oc(=O)n(-c2cc(Cl)ccc2Cl)c1=O)c1ccc(F)cc1 [Compound 16]
soybean; [15]
  Soybean plant response rating: 1
soybean; [16]
  Soybean plant response rating: 1
soybean; [17]
  Plant response rating, Soybean: 0
soybean; [18]
  Plant response rating, Soybean: 0
soybean; [19]
  Plant response rating, Soybean: 0
soybean; [20]
  Soybean plant response rating: 0
soybean; [21]
  Soybean plant response rating: 1
Smallflower flatsedge; [15]
  S. Flatsedge plant response rating: 0
Smallflower flatsedge; [22]
  S. Flatsedge plant response rating: 0
Smallflower flatsedge; [23]
  S. Flatsedge plant response rating: 0
velvetleaf; [15]
  Velvetleaf plant response rating: 0
velvetleaf; [16]
  Velvetleaf plant response rating: 0
velvetleaf; [17]
  Plant response rating, Velvetleaf: 0
velvetleaf; [18]
  Plant response rating, Velvetleaf: 0
velvetleaf; [19]
  Plant response rating, Velvetleaf: 0
velvetleaf; [20]
  Velvetleaf plant response rating: 0
velvetleaf; [21]
  Velvetleaf plant response rating: 0
Duck salad; [15]
  Ducksalad plant response rating: 0
Duck salad; [22]
  Ducksalad plant response rating: 0
Duck salad; Rate 500 g/ha, Postemergence section of Table B, 0 to 10 scale (0 no effect, 10 complete control)
  Ducksalad plant response rating: 0
Duck salad; [23]
  Ducksalad plant response rating: 0

## C=CCn1c(=O)on(C(=O)N(c2c(C)cccc2C)C(C)COC)c1=O (centres unmarked) [Compound 600]
soybean; [24]
  Plant response rating, Soybean: 2
soybean; [25]
  Soybean plant response rating: 3
soybean; [26]
  Plant response rating, Soybean: 4
soybean; [1]
  Soybean plant response rating: 4
soybean; [27]
  Soybean plant response rating: 0
soybean; [28]
  Plant response rating, Soybean: 0
soybean; [7]
  Plant response rating, Soybean: 3
Smallflower flatsedge; [10]
  S. Flatsedge plant response rating: 0
Smallflower flatsedge; [29]
  S. Flatsedge plant response rating (0 to 10 scale, 0 is no effect, 10 is complete control): 0
Smallflower flatsedge; [30]
  S. Flatsedge plant response rating: 0
Smallflower flatsedge; [31]
  S. Flatsedge plant response rating: 0
velvetleaf; [24]
  Plant response rating, Velvetleaf: 0
velvetleaf; [25]
  Velvetleaf plant response rating: 0
velvetleaf; [26]
  Plant response rating, Velvetleaf: 0
velvetleaf; [1]
  Velvetleaf plant response rating: 0
velvetleaf; [27]
  Velvetleaf plant response rating: 0
velvetleaf; [28]
  Plant response rating, Velvetleaf: 0
velvetleaf; [7]
  Plant response rating, Velvetleaf: 0
Duck salad; [10]
  Ducksalad plant response rating: 0
Duck salad; [29]
  Ducksalad plant response rating (0 to 10 scale, 0 is no effect, 10 is complete control): 0
Duck salad; [30]
  Ducksalad plant response rating: 0
Duck salad; [31]
  Ducksalad plant response rating: 0
